Measured values as given in PubChem BioAssay (NCI).
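These data come from cells grown in 96-well plates and exposed to compound for 48 hours at five concentrations. At the GI50, growth is halved. TGI marks complete inhibition of growth.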

Tests used:
Assay in all cases: NCI anticancer screen, dose series, 48 h
SNB-75 CNS = test system: SNB-75 CNS
NCI-H226 lung = test system: NCI-H226 lung
IGROV1 ovarian = test system: IGROV1 ovarian
OVCAR-5 ovarian = test system: OVCAR-5 ovarian
RXF 393 renal = test system: RXF 393 renal
SK-MEL-2 melanoma = test system: SK-MEL-2 melanoma
ACHN renal = test system: ACHN renal
SK-MEL-28 melanoma = test system: SK-MEL-28 melanoma
MALME-3M melanoma = test system: MALME-3M melanoma
A549 NSCLC = test system: A549 NSCLC
HOP-92 NSCLC = test system: HOP-92 NSCLC
NCI-H23 lung = test system: NCI-H23 lung
PC-3 prostate = test system: PC-3 prostate
KM12 colon = test system: KM12 colon
NCI-H460 lung = test system: NCI-H460 lung
OVCAR-3 ovarian = test system: OVCAR-3 ovarian
RPMI-8226 leukemia = test system: RPMI-8226 leukemia
MDA-MB-231 breast = test system: MDA-MB-231 breast
SF-268 CNS = test system: SF-268 CNS
HS 578T breast = test system: HS 578T breast
HOP-62 NSCLC = test system: HOP-62 NSCLC
UACC-257 melanoma = test system: UACC-257 melanoma
DU-145 prostate = test system: DU-145 prostate
A498 renal = test system: A498 renal
CCRF-CEM leukemia = test system: CCRF-CEM leukemia
SNB-19 CNS = test system: SNB-19 CNS
HCT-15 colon = test system: HCT-15 colon
SN12C renal = test system: SN12C renal
SK-MEL-5 melanoma = test system: SK-MEL-5 melanoma
UACC-62 melanoma = test system: UACC-62 melanoma
COLO 205 colon = test system: COLO 205 colon
HL-60(TB) leukemia = test system: HL-60(TB) leukemia
MOLT-4 leukemia = test system: MOLT-4 leukemia
786-0 renal = test system: 786-0 renal
T-47D breast = test system: T-47D breast
U251 CNS = test system: U251 CNS
BT-549 breast = test system: BT-549 breast
HT29 colon = test system: HT29 colon
M14 melanoma = test system: M14 melanoma
K-562 leukemia = test system: K-562 leukemia
TK-10 renal = test system: TK-10 renal
LOX IMVI melanoma = test system: LOX IMVI melanoma
SK-OV-3 ovarian = test system: SK-OV-3 ovarian
NCI-H522 lung = test system: NCI-H522 lung
MDA-MB-435 = test system: MDA-MB-435
UO-31 renal = test system: UO-31 renal
HCC-2998 colon = test system: HCC-2998 colon
SW-620 colon = test system: SW-620 colon
NCI/ADR-RES ovarian = test system: NCI/ADR-RES ovarian
HCT-116 colon = test system: HCT-116 colon
EKVX NSCLC = test system: EKVX NSCLC
SF-539 CNS = test system: SF-539 CNS
SF-295 CNS = test system: SF-295 CNS
SR leukemia = test system: SR leukemia
MCF7 breast = test system: MCF7 breast
OVCAR-8 ovarian = test system: OVCAR-8 ovarian
OVCAR-4 ovarian = test system: OVCAR-4 ovarian
CAKI-1 renal = test system: CAKI-1 renal

Question: What does the source list for `CC(=O)c1c(Nc2cccc(F)c2)[nH]c2c(Cl)cc(Cl)c(Cl)c2c1=O`?
Answer: GI50 (SNB-75 CNS): 508 nM; TGI (SNB-75 CNS): > 22000 nM; GI50 (NCI-H226 lung): 343 nM; TGI (NCI-H226 lung): 2930 nM; GI50 (IGROV1 ovarian): 440 nM; TGI (IGROV1 ovarian): > 100000 nM; GI50 (OVCAR-5 ovarian): 1220 nM; TGI (OVCAR-5 ovarian): > 100000 nM; GI50 (RXF 393 renal): 326 nM; TGI (RXF 393 renal): 1950 nM; GI50 (SK-MEL-2 melanoma): 292 nM; TGI (SK-MEL-2 melanoma): 1290 nM; GI50 (ACHN renal): 411 nM; TGI (ACHN renal): > 28600 nM; GI50 (SK-MEL-28 melanoma): 377 nM; TGI (SK-MEL-28 melanoma): 4830 nM; GI50 (MALME-3M melanoma): 264 nM; TGI (MALME-3M melanoma): 1020 nM; GI50 (A549 NSCLC): 479 nM; TGI (A549 NSCLC): > 100000 nM; GI50 (HOP-92 NSCLC): 88.4 nM; TGI (HOP-92 NSCLC): 477 nM; GI50 (NCI-H23 lung): 262 nM; TGI (NCI-H23 lung): 1940 nM; GI50 (PC-3 prostate): 257 nM; TGI (PC-3 prostate): 17600 nM; GI50 (KM12 colon): 346 nM; GI50 (NCI-H460 lung): 360 nM; TGI (NCI-H460 lung): > 100000 nM; GI50 (OVCAR-3 ovarian): 299 nM; TGI (OVCAR-3 ovarian): > 100000 nM; GI50 (RPMI-8226 leukemia): 232 nM; TGI (RPMI-8226 leukemia): 2180 nM; GI50 (MDA-MB-231 breast): 259 nM; TGI (MDA-MB-231 breast): 1940 nM; GI50 (SF-268 CNS): 333 nM; TGI (SF-268 CNS): > 100000 nM; GI50 (HS 578T breast): 278 nM; TGI (HS 578T breast): > 100000 nM; GI50 (HOP-62 NSCLC): 418 nM; TGI (HOP-62 NSCLC): 11000 nM; GI50 (UACC-257 melanoma): 363 nM; TGI (UACC-257 melanoma): 3150 nM; GI50 (DU-145 prostate): 447 nM; TGI (DU-145 prostate): > 100000 nM; GI50 (A498 renal): 137 nM; TGI (A498 renal): 611 nM; GI50 (CCRF-CEM leukemia): 346 nM; TGI (CCRF-CEM leukemia): > 100000 nM; GI50 (SNB-19 CNS): 384 nM; TGI (SNB-19 CNS): > 100000 nM; GI50 (HCT-15 colon): 296 nM; TGI (HCT-15 colon): 2230 nM; GI50 (SN12C renal): 289 nM; GI50 (SK-MEL-5 melanoma): 184 nM; TGI (SK-MEL-5 melanoma): 433 nM; GI50 (UACC-62 melanoma): 253 nM; TGI (UACC-62 melanoma): 793 nM; GI50 (COLO 205 colon): 440 nM; TGI (COLO 205 colon): 2480 nM; GI50 (HL-60(TB) leukemia): 337 nM; TGI (HL-60(TB) leukemia): 1540 nM; GI50 (MOLT-4 leukemia): 356 nM; GI50 (786-0 renal): 471 nM; TGI (786-0 renal): > 100000 nM; GI50 (T-47D breast): 288 nM; GI50 (U251 CNS): 270 nM; TGI (U251 CNS): > 100000 nM; GI50 (BT-549 breast): 457 nM; TGI (BT-549 breast): 8310 nM; GI50 (HT29 colon): 387 nM; TGI (HT29 colon): > 100000 nM; GI50 (M14 melanoma): 366 nM; TGI (M14 melanoma): 7130 nM; GI50 (K-562 leukemia): 307 nM; TGI (K-562 leukemia): > 100000 nM; GI50 (TK-10 renal): 554 nM; TGI (TK-10 renal): > 100000 nM; GI50 (LOX IMVI melanoma): 487 nM; TGI (LOX IMVI melanoma): 12800 nM; GI50 (SK-OV-3 ovarian): 263 nM; TGI (SK-OV-3 ovarian): 4860 nM; GI50 (NCI-H522 lung): 289 nM; TGI (NCI-H522 lung): > 100000 nM; GI50 (MDA-MB-435): 425 nM; TGI (MDA-MB-435): 8550 nM; GI50 (UO-31 renal): 216 nM; TGI (UO-31 renal): 5940 nM; GI50 (HCC-2998 colon): 333 nM; TGI (HCC-2998 colon): > 100000 nM; GI50 (SW-620 colon): 366 nM; TGI (SW-620 colon): > 100000 nM; GI50 (NCI/ADR-RES ovarian): 297 nM; TGI (NCI/ADR-RES ovarian): 9890 nM; GI50 (HCT-116 colon): 302 nM; TGI (HCT-116 colon): > 44100 nM; GI50 (EKVX NSCLC): 333 nM; TGI (EKVX NSCLC): > 100000 nM; GI50 (SF-539 CNS): 369 nM; GI50 (SF-295 CNS): 336 nM; TGI (SF-295 CNS): 1810 nM; GI50 (SR leukemia): 697 nM; TGI (SR leukemia): > 100000 nM; GI50 (MCF7 breast): 309 nM; TGI (MCF7 breast): > 100000 nM; GI50 (OVCAR-8 ovarian): 363 nM; TGI (OVCAR-8 ovarian): > 100000 nM; GI50 (OVCAR-4 ovarian): 361 nM; TGI (OVCAR-4 ovarian): > 100000 nM; GI50 (CAKI-1 renal): 259 nM; TGI (CAKI-1 renal): 1830 nM
